Results on two compounds are retold here after patent publication US12029712B2 (Sun Pharmaceutical Industries, Inc., priority 2017, dated 2024).

Data set [1] can be described thus: Brain distribution of Compound 100 24 hours after a single 100 mg/kg PO dose. The format is in vivo, male Sprague-Dawley rats. The protocol: The distribution profile of Compound 100 was investigated in male Sprague-Dawley rats. […] At 24 hours after dosing, tissues from perfused brain and plasma were collected and analyzed by LC-MS.
Data set [2] is described as follows: Pharmacokinetics of deuterated and non-deuterated D-serine, PO 10 mg/kg. The format is in vivo, male Sprague Dawley rats. The protocol:
Three rats were used for each group. Blood was collected at the following time points: for IV dosing: pre-dose, 0.05, 0.167, 0.5, 1, 2, 4, 6, 8 and 12 hours post-dose; for PO dosing: pre-dose, 0.25, 0.5, 1, 2, 4, 6, 8 and 12 hours post-dose PO. Urine was collected at pre-dose (minimum 12 hours), 0-6, 6-12 and 12-24 hours. Plasma samples were analyzed and quantified for dosed compound LC-MS/MS.

The nature of data set [3]: Pharmacokinetic profile of Compound 100 versus non-deuterated D-serine, 150 mg/kg PO. The format is in vivo, male Sprague-Dawley rats. From the text:
(§1) The pharmacokinetic profile of Compound 100 was investigated in male Sprague-Dawley rats compared with that of non-deuterated D-serine. […] Plasma was collected and analyzed for Compound 100 and non-deuterated D-Serine. Additional blood was collected and analyzed for the full clinical chemistry profile.

The subject of a further data set is rats. The data set is described as follows: Nephrotoxicity comparison at doses from 150 mg/kg to 750 mg/kg (dose escalation). Type of data set: in vivo. As to conditions: for BUN / creatinine: doses from 150 mg/kg to 750 mg/kg, PO.
Data set [4] concerns the target T1, human NMDAR subunits GluN1 and GluN2A (Homo sapiens, UniProt Q05586).
T1 construct: expressed in transfected cells; host or cells: HEK293
The experiment in a line: NMDA receptor activation in automated patch clamp system (ScreenPatch). The format is cell-based. The settings on record: HEK293 cells, 0.003 to 10 μM. The protocol: Peak current and steady state current were measured. The activity at the NMDA receptor was indistinguishable for the two compounds.
(In patch-clamp work, channel activity is measured electrically.)

Data set [5] relates to Male Sprague-Dawley Rats. The experiment in a line: Nephrotoxicity dose response of non-deuterated D-serine, 30 to 300 mg/kg PO. Type of data set: in vivo. As to conditions: 24 hr samples, 150 and 300 mg/kg doses, versus control and reference values. From the text: The pharmacokinetic profile of non-deuterated D-serine was investigated in male Sprague-Dawley rats. […] Plasma was collected and analyzed for the non-deuterated D-serine. Additional blood was collected and analyzed for the full clinical chemistry profile.

Data set [6] has as its system Male Sprague-Dawley Rats. The experiment in a line: Nephrotoxicity of Compound 100 and non-deuterated D-serine, 150 mg/kg PO (BUN, creatinine, GGT). The format is in vivo.
Source text: as §1

The mark [7] stands for this setting: dose escalation 150 mg/kg to 750 mg/kg.

`[2H][C@@](N)(CO)C(=O)O` [Compound 100, (2R)-2-amino-2-deutero-3-hydroxy-propanoic acid]: in data set [1], the “concentration in the cortex compared with plasma or other brain locations” value is given as “greater”. Further, the “Tmax compared with non-deuterated D-serine” value in data set [2] is recorded as “similar”. Further, the “Cmax and AUCinf compared with non-deuterated D-serine” value in data set [3] was “similar”. Besides, the “course of concentration in hippocampus” value in data set [3] (at 24 hr) is given as “remained steady”. Further, in data set [3] (within 24 hr), the “course of concentrations in plasma and cortex” value is on record as “decreased”. Besides, in the data set with rats (setting [7]), the “exposure as measured by AUC and Cmax, compared with non-deuterated D-serine” value was “greater”; the “gross signs of nephrotoxicity” value is “not Compound 100”. In addition, in the data set on rats, the BUN entry is listed as “minimal changes” and the creatinine result was “minimal changes”. Also, the “activity at the NMDA receptor (peak current and steady state current)” value in data set [4] was “indistinguishable”.

As to `N[C@H](CO)C(=O)O` [Non-deuterated D-Serine, D-serine], in the data set on Male Sprague-Dawley Rats [5], the creatine level result is on record as “Elevated”, the “gamma glutamyl transferase (GGT) level” value is listed as “Elevated” and the urea nitrogen level entry is on record as “Elevated”. For the same compound, in the data set on Male Sprague-Dawley Rats [6] (8 hr and 24 hr serum samples), the “blood urea nitrogen (BUN) level” value is on record as “Elevated”. In addition, in the data set with Male Sprague-Dawley Rats [6] (24 hr serum samples), the creatinine level entry is recorded as “Elevated” and the “gamma glutamyl transferase (GGT) level” value is given as “Elevated”. In addition, the “gross signs of nephrotoxicity” value with rats (setting [7]) is listed as “only observed in rats receiving non-deuterated D-serine”. In the data set on rats, the BUN result is “increasingly elevated levels” and the creatinine entry was “increasingly elevated levels”. For the same compound, the “activity at the NMDA receptor (peak current and steady state current)” value in data set [4] is “indistinguishable”.
